Laboratory results from ChEMBL document CHEMBL5715939, “Aurora kinase inhibitors: a new class of targeted drugs in cancer” (Clin Lung Cancer, 2006).

Key:
Aurora kinase B = Aurora kinase B (Homo sapiens, UniProt Q96GD4); assay: Inhibition of human aurora B
[1] = biological target: T1, Receptor-type tyrosine-protein kinase FLT3 (Homo sapiens, UniProt P36888); assay: Inhibition of human FLT3
T1 sequence (P36888 whole entry): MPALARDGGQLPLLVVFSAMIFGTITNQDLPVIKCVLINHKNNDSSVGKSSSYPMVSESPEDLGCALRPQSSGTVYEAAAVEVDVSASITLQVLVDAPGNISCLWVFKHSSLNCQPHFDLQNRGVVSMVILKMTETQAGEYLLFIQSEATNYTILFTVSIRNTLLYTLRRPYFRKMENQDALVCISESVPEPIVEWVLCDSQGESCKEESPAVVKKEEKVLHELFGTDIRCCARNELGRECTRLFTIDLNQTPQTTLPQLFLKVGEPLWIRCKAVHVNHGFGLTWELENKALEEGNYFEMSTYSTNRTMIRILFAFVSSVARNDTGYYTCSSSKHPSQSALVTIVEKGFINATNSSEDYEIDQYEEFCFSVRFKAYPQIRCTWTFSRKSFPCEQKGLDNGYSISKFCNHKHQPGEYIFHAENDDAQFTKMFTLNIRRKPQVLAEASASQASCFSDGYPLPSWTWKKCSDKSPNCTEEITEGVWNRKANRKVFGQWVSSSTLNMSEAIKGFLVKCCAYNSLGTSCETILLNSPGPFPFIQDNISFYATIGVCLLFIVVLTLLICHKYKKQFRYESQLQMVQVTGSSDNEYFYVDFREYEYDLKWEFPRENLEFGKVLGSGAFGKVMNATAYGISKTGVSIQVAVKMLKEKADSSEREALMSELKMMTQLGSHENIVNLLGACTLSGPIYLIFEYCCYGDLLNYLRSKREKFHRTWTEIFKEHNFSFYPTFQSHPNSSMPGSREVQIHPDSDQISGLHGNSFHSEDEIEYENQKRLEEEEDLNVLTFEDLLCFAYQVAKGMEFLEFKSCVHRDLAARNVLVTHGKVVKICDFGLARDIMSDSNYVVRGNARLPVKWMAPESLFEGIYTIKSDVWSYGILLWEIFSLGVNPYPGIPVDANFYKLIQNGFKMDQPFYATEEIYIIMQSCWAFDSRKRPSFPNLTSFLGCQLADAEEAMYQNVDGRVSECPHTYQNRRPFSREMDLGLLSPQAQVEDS

Aurora kinase C = biological target: T2, Aurora kinase C (Homo sapiens, UniProt Q9UQB9); assay: Inhibition of human aurora C
T2 sequence (Q9UQB9 whole entry): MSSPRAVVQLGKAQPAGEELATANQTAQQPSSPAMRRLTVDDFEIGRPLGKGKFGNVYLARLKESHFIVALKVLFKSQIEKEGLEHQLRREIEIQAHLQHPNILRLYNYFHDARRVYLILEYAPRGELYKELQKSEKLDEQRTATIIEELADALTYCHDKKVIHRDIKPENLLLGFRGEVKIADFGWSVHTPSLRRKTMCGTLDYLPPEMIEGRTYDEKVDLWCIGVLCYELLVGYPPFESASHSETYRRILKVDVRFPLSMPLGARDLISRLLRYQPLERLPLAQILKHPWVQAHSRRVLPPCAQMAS

[2] = Half life in human patient with advanced solid tumors at 0.5 to 12 mg/m2/hr, iv administered by continuous intravenous infusion over 5 days every 4 weeks; assay type: ADME, organism-based; conditions: in vivo, dose 0.5-12 mg/m2/hr, time 5 day
[3] = Cmax in plasma of human patient with advanced solid tumors at 0.5 to 12 mg/m2/hr, iv administered by continuous intravenous infusion over 5 days every 4 weeks; assay type: ADME, organism-based; conditions: dose 0.5-12 mg/m2/hr, time 5 day

Chain of Aurora kinase B (Q96GD4 whole entry): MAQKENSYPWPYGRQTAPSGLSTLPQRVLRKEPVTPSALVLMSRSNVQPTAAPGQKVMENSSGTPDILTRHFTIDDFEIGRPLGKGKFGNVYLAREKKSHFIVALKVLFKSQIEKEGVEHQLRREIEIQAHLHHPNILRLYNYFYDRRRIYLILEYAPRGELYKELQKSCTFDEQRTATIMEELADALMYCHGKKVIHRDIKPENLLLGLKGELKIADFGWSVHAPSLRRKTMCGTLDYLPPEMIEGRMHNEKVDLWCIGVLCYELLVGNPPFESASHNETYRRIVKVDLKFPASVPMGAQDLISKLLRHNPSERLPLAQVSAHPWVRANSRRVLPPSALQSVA

Compound: CCc1cccc(CC)c1NC(=O)N1Cc2n[nH]c(NC(=O)c3ccc(N4CCN(C)CC4)cc3)c2C1 [PHA-680632]
- IC50 (Aurora kinase B): 35 nM
- IC50 [1]: 390 nM

Compound: CCN(CCCOc1ccc2c(Nc3cc(CC(=O)Nc4cccc(F)c4)n[nH]3)ncnc2c1)CCOP(=O)(O)O [BARASERTIB]
- Ki (Aurora kinase C): 17 nM

Compound: Cc1cc(Nc2cc(N3CCN(C)CC3)nc(Sc3ccc(NC(=O)C4CC4)cc3)n2)[nH]n1 [TOZASERTIB]
- half-life [2]: 900 min
- Cmax [3]: 650 nM

Compound: O=C(Nc1c[nH]nc1-c1nc2cc(CN3CCOCC3)ccc2[nH]1)NC1CC1 [AT-9283]
- IC50 (Aurora kinase B): < 3 nM
